Laboratory results taken from patent US12410171B2, “Tropomyosin receptor kinase (TRK) degradation compounds and methods of use” (Cullgen (Shanghai), Inc., priority 2020, dated 2025).

Target: T1, TPM3-TRKA fusion protein (Homo sapiens, UniProt P04629)
T1 construct: The resulted chimeric proteins always retain the kinase domain of TRK proteins; TPM3 (fusion partner, N-terminal part of tropomyosin alpha-3, P06753); endogenous in cells; host or cells: KM12 colon cancer cells; the other entry of the earlier key: TPM3 (P06753, Tropomyosin alpha-3 chain)
Test: TPM3-TRKA fusion protein levels in KM12 cells (Western blot)
Format: cell-based
Details: 16 h; TPM3-TRKA degradation in KM12 cells at 10 nM compound, category of percentage degradation; read-out: Degradation (at 10 nM)
Method in brief: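 TPM3-TRKA levels were assessed by Western blot with chemiluminescent detection and band densitometry, after SDS-PAGE of BCA-normalized RIPA lysates. Before lysis, KM12 cells received DMSO, compounds or matched control compounds at concentrations including 0.1, 1, 10 and 100 nM and 0.4–30 nM. Exposures lasted 4 h, 8–16 h or 16 h.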

T1 sequence (P04629 with tags, fused parts or gaps): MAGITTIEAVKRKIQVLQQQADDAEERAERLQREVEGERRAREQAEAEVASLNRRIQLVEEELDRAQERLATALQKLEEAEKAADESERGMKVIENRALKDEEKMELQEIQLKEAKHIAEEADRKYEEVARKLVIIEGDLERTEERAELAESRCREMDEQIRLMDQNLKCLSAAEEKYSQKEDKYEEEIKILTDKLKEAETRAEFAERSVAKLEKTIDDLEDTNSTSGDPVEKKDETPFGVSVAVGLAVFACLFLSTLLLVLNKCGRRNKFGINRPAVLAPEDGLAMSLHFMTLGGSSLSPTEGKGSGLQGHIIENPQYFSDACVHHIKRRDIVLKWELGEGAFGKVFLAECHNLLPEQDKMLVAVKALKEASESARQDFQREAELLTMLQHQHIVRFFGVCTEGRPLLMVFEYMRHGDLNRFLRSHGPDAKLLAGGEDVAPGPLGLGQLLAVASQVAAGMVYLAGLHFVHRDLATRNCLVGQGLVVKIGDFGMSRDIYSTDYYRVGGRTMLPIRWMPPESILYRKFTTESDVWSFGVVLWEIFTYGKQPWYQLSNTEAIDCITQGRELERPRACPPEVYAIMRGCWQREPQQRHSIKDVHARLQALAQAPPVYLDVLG

SMILES	percent degradation of TPM3-TRKA protein at 0.01 µM
O=C1CCC(N2C(=O)c3ccc(NCCOCCOCCC(=O)N4CCN(c5ccc(C(=O)Nc6n[nH]c7ccc(Cc8cc(F)cc(F)c8)cc67)c(NC6CCOCC6)c5)CC4)cc3C2=O)C(=O)N1 (centres unmarked) [TR-141, N-(5-(3,5-Difluorobenzyl)-1H-indazol-3-yl)-4-(4-(3-(2-(2-((2-(2,6-dioxopiperidin-3-yl)-1,3-dioxoisoindolin-5-yl)amino)ethoxy)ethoxy)propanoyl)piperazin-1-yl)-2-((tetrahydro-2H-pyran-4-yl)amino)benzamide]	> 80%
O=C1CCC(N2C(=O)c3ccc(NCCCCC(=O)N4CCN(c5ccc(C(=O)Nc6n[nH]c7ccc(Cc8cc(F)cc(F)c8)cc67)c(NC6CCOCC6)c5)CC4)cc3C2=O)C(=O)N1 (centres unmarked) [TR-142, N-(5-(3,5-Difluorobenzyl)-1H-indazol-3-yl)-4-(4-(5-((2-(2,6-dioxopiperidin-3-yl)-1,3-dioxoisoindolin-5-yl)amino)pentanoyl)piperazin-1-yl)-2-((tetrahydro-2H-pyran-4-yl)amino)benzamide]	> 80%
O=C1CCC(N2C(=O)c3ccc(NCCOCCC(=O)N4CCN(c5ccc(C(=O)Nc6n[nH]c7ccc(Cc8cc(F)cc(F)c8)cc67)c(NC6CCOCC6)c5)CC4)cc3C2=O)C(=O)N1 (centres unmarked) [TR-143]	> 80%
O=C1CCC(N2C(=O)c3ccc(NCC(=O)N4CCN(c5ccc(C(=O)Nc6n[nH]c7ccc(Cc8cc(F)cc(F)c8)cc67)c(NC6CCOCC6)c5)CC4)cc3C2=O)C(=O)N1 (centres unmarked) [TR-144, N-(5˜ (3,5-Difluorobenzyl)-1H-indazol-3-yl)-4-(4-((2˜ (2,6-dioxopiperidin-3-yl)-1,3-dioxoisoindolin-5-yl)glycyl)piperazin-1-yl)-2-((tetrahydro-2H-pyran-4-yl)amino)benzamide]	> 80%
O=C1CCC(N2C(=O)c3ccc(NCCC(=O)N4CCN(c5ccc(C(=O)Nc6n[nH]c7ccc(Cc8cc(F)cc(F)c8)cc67)c(NC6CCOCC6)c5)CC4)cc3C2=O)C(=O)N1 (stereo not drawn) [TR-145, N—(S-(3,5-Difluorobenzyl)-1H-indazol-3-yl)-4-(4-(3-((2-(2,6-dioxopiperidin-3-yl)-1,3-dioxoisoindolin-S-yl)amino)propanoyl)piperazin-1-yl)-2-((tetrahydro-2H-pyran-4-yl)amino)benzamide]	> 80%
O=C1CCC(N2C(=O)c3ccc(NCCOCCOCCOCCC(=O)N4CCN(c5ccc(C(=O)Nc6n[nH]c7ccc(Cc8cc(F)cc(F)c8)cc67)c(NC6CCOCC6)c5)CC4)cc3C2=O)C(=O)N1 (centres unmarked) [TR-146, N-(5-(3,5-Difluorobenzyl)-1H-indazol-3-yl)-4-(4-(3-(2-(2-(2-((2-(2,6-dioxopiperidin-3-yl)-1,3-dioxoisoindolin-5-yl)amino)ethoxy)ethoxy)ethoxy)propanoyl)piperazin-1-yl)-2-((tetrahydro-2/-pyran-4-yl)amino)benzamide]	> 80%
O=C(CN1CCN(c2ccc(C(=O)Nc3n[nH]c4ccc(Cc5cc(F)cc(F)c5)cc34)c(NC3CCOCC3)c2)CC1)NCCCCCCNc1cccc2c1C(=O)N(C1CCC(=O)NC1=O)C2=O (stereo not drawn) [TR-147, N—(S-(3,5-Difluorobenzyl)-1H-indazol-3-yl)-4-(4-(2-((6-((2-(2,6-dioxopiperidin-3-yl)-1,3-dioxoisoindolin-4-yl)amino)hexyl)amino)-2-oxoethyl)piperazin-1-yl)-2-((tetrahydro-2H-pyran-4-yl)amino)benzamide]	> 80%
O=C(CN1CCN(c2ccc(C(=O)Nc3n[nH]c4ccc(Cc5cc(F)cc(F)c5)cc34)c(NC3CCOCC3)c2)CC1)NCCCCCNc1cccc2c1C(=O)N(C1CCC(=O)NC1=O)C2=O (centres unmarked) [TR-149, N-(5-(3,5-Difluorobenzyl)-1H-indazol-3-yl)-4-(4-(2-((5-((2-(2,6-dioxopiperidin-3-yl)-1,3-dioxoisoindolin-4-yl)amino)pentyl)amino)-2-oxoethyl)piperazin-1-yl)-2-((tetrahydro-2H-pyran-4-yl)amino)benzamide]	> 80%
